Measured values: ChEMBL document CHEMBL1255412, “New mutation in 23S rRNA gene associated with high level of azithromycin resistance in Neisseria gonorrhoeae” (2010)
≈ marks a conversion by molar mass, not a printed value.

How the values were obtained:
Neisseria gonorrhoeae [1] = assay: Antimicrobial activity against high-level azithromycin resistant Neisseria gonorrhoeae isolate 1782 harboring A2143G mutation in peptidyltransferase loop in domain V of 23S rRNA alleles; format: functional
Neisseria gonorrhoeae [2] = assay: Antimicrobial activity against Neisseria gonorrhoeae isolate 3783; format: functional
Neisseria gonorrhoeae [3] = assay: microbe, parasite or virus in culture
Description: Antimicrobial activity against azithromycin resistant Neisseria gonorrhoeae isolate harboring C2599T mutation in peptidyltransferase loop in domain V of 23S rRNA alleles and T insertion in mtrR gene promoter region

Neisseria gonorrhoeae [4] = assay: Antimicrobial activity against azithromycin resistant Neisseria gonorrhoeae isolate 2498 harboring C2599T mutation in peptidyltransferase loop in domain V of 23S rRNA alleles; format: functional

CC[C@H]1OC(=O)[C@H](C)[C@@H](O[C@H]2C[C@@](C)(OC)[C@@H](O)[C@H](C)O2)[C@H](C)[C@@H](O[C@@H]2O[C@H](C)C[C@H](N(C)C)[C@H]2O)[C@](C)(O)C[C@@H](C)CN(C)[C@H](C)[C@@H](O)[C@]1(C)O [AZITHROMYCIN]
MIC (Neisseria gonorrhoeae [1]): > 2050 µg/mL
MIC (Neisseria gonorrhoeae [2]): 0.06 µg/mL (≈ 0.0801 µM)
MIC (Neisseria gonorrhoeae [3]): 4 µg/mL (≈ 5.34 µM)
MIC (Neisseria gonorrhoeae [4]): 8 µg/mL (≈ 10.7 µM)
